Some test systems named below: BT-549; IGROV-1; A498; NCI-H460; MDA-N; K562; HOP-62; SNB-75; NCI-H522; OVCAR-5; OVCAR-3; SK-MEL-2; SW-620; COLO 205; RPMI-8226; U-251; T47D; MDA-MB-435; SN12C; M14.
Holding throughout (assay): DTP human tumour cell line panel, 48 h

The structures appear in SMILES notation.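 Assay format: 96-well plates, 48-hour exposure. GI50 = concentration required for 50% inhibition of growth.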 Calls of active or inactive are those of the source. No stated cut-off is given here; in the data, active = GI50 up to about 1.1 µM and inactive = higher.

As a reminder, the GI50 is the concentration giving 50% growth inhibition. As for `C=C1CC(CNc2cc(Cl)nc(N)n2)C1`, the GI50 with BT-549 is 77.3 µM (inactive); with IGROV-1 it was > 100 µM (inactive); with A498 it was 1.99 µM (inactive); with NCI-H460 it was > 100 µM (inactive); with MDA-N, > 100 µM (inactive); with K562 it was 71.6 µM (inactive). Moreover, the GI50 in the experiment on HOP-62 is > 100 µM (inactive); in the experiment with SNB-75 it was > 100 µM (inactive); with NCI-H522, 96.8 µM (inactive); in the experiment with OVCAR-5, > 100 µM (inactive); in the experiment on OVCAR-3, 95.7 µM (inactive); in the experiment with SK-MEL-2 it was > 100 µM (inactive). Further, the GI50 in the experiment with SW-620 is > 100 µM (inactive); in the experiment on COLO 205, > 100 µM (inactive); in the experiment on RPMI-8226, 49.9 µM (inactive); in the experiment with U-251 it was 55.6 µM (inactive); in the experiment with T47D it was > 10 µM (inactive); in the experiment with MDA-MB-435 it was > 100 µM (inactive). The GI50 in the experiment with SN12C was > 100 µM (inactive).

On to `O=C(O)CN1CCNCCN(CP(=O)(O)O)CC1`, for which the GI50 in the experiment with BT-549 was > 100 µM (inactive); in the experiment on IGROV-1, 4.15 µM (inactive); in the experiment on A498, > 19.7 µM (inactive); in the experiment with M14, 16.6 µM (inactive); in the experiment with NCI-H460, 3.44 µM (inactive); in the experiment on MDA-N it was 5.35 µM (inactive). In addition, the GI50 in the experiment with K562 is 3.92 µM (inactive); with HOP-62, > 100 µM (inactive); in the experiment with SNB-75, 14.2 µM (inactive); in the experiment on NCI-H522, 2.58 µM (inactive); in the experiment with OVCAR-5, 6.52 µM (inactive); in the experiment with SK-MEL-2, 7.03 µM (inactive). Moreover, the GI50 with SW-620 was 4.49 µM (inactive); in the experiment on COLO 205, 2.84 µM (inactive); with RPMI-8226, 5.52 µM (inactive); in the experiment with U-251, > 24.3 µM (inactive); in the experiment on T47D, > 100 µM (inactive); with MDA-MB-435 it was > 53 µM (inactive). In the experiment on SN12C, the GI50 was > 100 µM (inactive).

Take `O=c1oc2ccccc2c(-c2ccc(O)cc2)c1Oc1ccccc1`: the GI50 with BT-549 is 3.33 µM (inactive); in the experiment with IGROV-1 it was 6.44 µM (inactive); in the experiment with A498, 7.71 µM (inactive); in the experiment with M14, 9.16 µM (inactive); with NCI-H460, 6.85 µM (inactive); in the experiment on MDA-N it was 14.3 µM (inactive). For the same compound, the GI50 is 34.6 µM (inactive) in the experiment with K562; 24.1 µM (inactive) in the experiment with HOP-62; > 46.8 µM (inactive) in the experiment with SNB-75; 3.47 µM (inactive) in the experiment on NCI-H522; 18.8 µM (inactive) with OVCAR-5; 17.5 µM (inactive) in the experiment with OVCAR-3. Also, the GI50 in the experiment on SK-MEL-2 was 7.1 µM (inactive); with SW-620, 37.8 µM (inactive); in the experiment with COLO 205 it was 29.4 µM (inactive); with RPMI-8226, 28.1 µM (inactive); in the experiment with U-251 it was 8.51 µM (inactive); in the experiment with T47D it was > 100 µM (inactive). The values for the GI50 in the experiment with MDA-MB-435 and with SN12C were 22.1 µM (inactive) and 21.5 µM (inactive), respectively.

Consider `S=C(NC/C(Br)=C/Br)Nc1cccc2ccccc12`, for which the GI50 in the experiment on BT-549 was 33.3 µM (inactive); with IGROV-1 it was 29.3 µM (inactive); in the experiment on A498, 33.5 µM (inactive); with M14 it was 16.8 µM (inactive); in the experiment on MDA-N, 25.4 µM (inactive); in the experiment with K562, 11.7 µM (inactive). Also, the GI50 is 30.3 µM (inactive) with HOP-62; 33.5 µM (inactive) in the experiment with SNB-75; 20 µM (inactive) in the experiment with NCI-H522; 33.6 µM (inactive) in the experiment with OVCAR-5; 24 µM (inactive) in the experiment on OVCAR-3; 20.4 µM (inactive) with SK-MEL-2. Further, the GI50 was 18.5 µM (inactive) in the experiment on COLO 205; 15.4 µM (inactive) with RPMI-8226; 30.3 µM (inactive) in the experiment on U-251; 40.4 µM (inactive) with T47D; 34 µM (inactive) in the experiment with MDA-MB-435; 24.4 µM (inactive) with SN12C.

`CCOP(=O)(OCC)[C@H](O)c1ccsc1`: the GI50 with BT-549, in the experiment on IGROV-1, in the experiment on A498, with M14, with NCI-H460 and in the experiment with MDA-N was > 100 µM (inactive) each time. Besides, the GI50 with K562, in the experiment on HOP-62, in the experiment on SNB-75, in the experiment with NCI-H522, in the experiment with OVCAR-5 and with SK-MEL-2 was > 100 µM (inactive) throughout. In addition, the GI50 in the experiment on SW-620, with COLO 205, in the experiment with RPMI-8226, in the experiment with U-251, in the experiment on T47D and in the experiment on MDA-MB-435 was > 100 µM (inactive) in each case. The GI50 with SN12C is > 100 µM (inactive).

Consider `O=c1[nH]/c(=C/c2ccc(OCc3ccccc3)cn2)c(=O)[nH]/c1=C/c1cccnc1`, for which the GI50 is 14.2 µM (inactive) with BT-549; 0.908 µM (active) in the experiment on IGROV-1; 0.209 µM (active) in the experiment on A498; 0.344 µM (active) with M14; 0.41 µM (active) in the experiment with NCI-H460; 0.106 µM (active) in the experiment on MDA-N. Moreover, the GI50 was 0.318 µM (active) in the experiment with K562; 0.497 µM (active) with HOP-62; 0.452 µM (active) in the experiment with SNB-75; 0.182 µM (active) in the experiment on NCI-H522; 1.39 µM (inactive) in the experiment with OVCAR-5; 0.23 µM (active) with OVCAR-3. The GI50 was 0.38 µM (active) in the experiment with SK-MEL-2; 0.42 µM (active) with SW-620; 2.07 µM (inactive) with COLO 205; 0.628 µM (active) in the experiment on RPMI-8226; 0.581 µM (active) in the experiment on U-251; 0.458 µM (active) in the experiment on T47D. The GI50 was 0.0845 µM (active) in the experiment with MDA-MB-435 and 0.417 µM (active) with SN12C.

For `N#Cc1cc([N+](=O)[O-])ccc1NC(=O)/C(=N\NC(=O)c1ccncc1)C(c1cnc2ccc([N+](=O)[O-])cc2n1)[N+](=O)[O-]` (centres undefined), the GI50 with BT-549 was 1.85 µM (inactive); in the experiment with IGROV-1, 3.78 µM (inactive); in the experiment on A498 it was 8.49 µM (inactive); in the experiment on M14 it was 1.63 µM (inactive); in the experiment with NCI-H460 it was 2.13 µM (inactive); in the experiment on MDA-N, 0.512 µM (active). For the same compound, the GI50 in the experiment on K562 is 2.02 µM (inactive); in the experiment on HOP-62, 2.81 µM (inactive); with SNB-75, 1.99 µM (inactive); in the experiment on NCI-H522, 1.8 µM (inactive); in the experiment with OVCAR-5, 9.4 µM (inactive); in the experiment with OVCAR-3 it was 1.64 µM (inactive). In addition, the GI50 with SK-MEL-2 is 1.75 µM (inactive); in the experiment on SW-620, 2.4 µM (inactive); with COLO 205, 5.69 µM (inactive); in the experiment on RPMI-8226, 5.89 µM (inactive); in the experiment on U-251, 2.15 µM (inactive); in the experiment with T47D, 3.37 µM (inactive). The GI50 was 1.03 µM (active) in the experiment with MDA-MB-435 and 1.85 µM (inactive) in the experiment with SN12C.

Regarding `OC1CCCN(C2(c3cccs3)CCCCC2)C1` (centres undefined), the GI50 is > 100 µM (inactive) in the experiment on BT-549; 97.5 µM (inactive) in the experiment with IGROV-1; > 100 µM (inactive) in the experiment with A498; > 100 µM (inactive) with NCI-H460; > 100 µM (inactive) in the experiment on MDA-N; > 100 µM (inactive) with K562. Also, the GI50 in the experiment on HOP-62, in the experiment with SNB-75, with NCI-H522, in the experiment with OVCAR-5, in the experiment with OVCAR-3 and in the experiment on SK-MEL-2 was > 100 µM (inactive) throughout. In addition, the GI50 with SW-620, with COLO 205, with RPMI-8226, with U-251, in the experiment on T47D and in the experiment on MDA-MB-435 was > 100 µM (inactive) each time. The GI50 in the experiment with SN12C was > 100 µM (inactive).

(Values after ChEMBL document CHEMBL1201862, “PubChem BioAssay data set” (2004).)
